Data as given in patent publication US20240156825A1, “USE OF SELECTIVE VEGFR2 AND FGFR1 INHIBITORS” (Fountain Therapeutics Inc., priority 2022, published 2024).
Where two headings read alike, the source gives them in different places.

Legend:
[1] = system: Zmpste24−/− mice; experiment: Mouse model of progeria: body fat (Echo MRI), lean muscle, body weight, intrascapular brown fat; format: in vivo; conditions: oral gavage QD5 for 56 days; for Body fat (Echo MRI) vs vehicle / Intrascapular brown fat mass (percent of body weight) vs vehicle: Brivanib alaninate 50, SU5402 25, Cediranib maleate 5, Regorafenib 10, infigratinib 5 mg/kg; for Body weight vs vehicle / Lean muscle vs vehicle: SU5402 25, Cediranib maleate 5, Regorafenib 10, infigratinib 5 mg/kg
Protocol: Zmpste24 mice, a progeria model mouse line, were dosed with either 50 mg/kg Brivanib alaninate for 56 days, 5 days on, 2 days off (QD5), or vehicle alone. The dose was administered via oral gavage as a suspension of 18% (w/v) PEG400 2% (w/v) Tween-80 in water . The vehicle alone was 18% (w/v) PEG400 2% (w/v) Tween-80 in water.
The body fat of the mice was measured by an Echo MRI throughout the treatment.
Samples of intrascapular brown adipose tissue from 15 week old mice treated with Brivanib Alaninate or vehicle for 56 days underwent Hematoxylin and Eosin (H&E) staining.
Zmpste24−/− mice, a progeria model mouse line, were dosed with either 25 mg/kg SU5402 for 56 days, 5 days on, 2 days off (QD5) or vehicle alone. The dose was administered via oral gavage as a suspension of 5% (w/v) DMSO 9% (w/v) PEG400 1% (w/v) Tween-80 in saline. The vehicle alone was 5% (w/v) DMSO 9% (w/v) PEG400 1% (w/v) Tween-80 in saline.
The body fat of the mice was measured by an Echo […]. Lean muscle and body weight were also measured.
The dose was administered via oral gavage as a suspension of 18% (w/v) PEG400 2% (w/v) Tween-80 in water . The vehicle alone was 18% (w/v) PEG400 2% (w/v) Tween-80 in water.
The body fat of the mice was measured by an Echo MRI. […] There was also no alteration of intrascapular brown adipose tissue mass (FIG. 5D).
The dose was administered via oral gavage as a suspension of 18% (w/v) PEG400 2% (w/v) Tween-80 in water. The vehicle alone was 18% (w/v) PEG400 2% (w/v) Tween-80 in water.
The body fat of the mice was measured by an Echo MM. […] There was also no alteration of intrascapular brown adipose tissue mass (FIG. 6D).
The body fat of the mice was measure by an Echo MRI. […] There was also no alteration of intrascapular brown adipose tissue mass (FIG. 7D). […]

[2] = system: VEGFR2 and FGFR1; experiment: Selection of compounds that selectively inhibit both VEGFR2 and FGFR1 (average relative IC50); format: biochemical;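 also: relative IC50 is the IC50 for VEGFR2 or FGFR1 divided by the next-lowest IC50 reported against any target gene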
[3] = target: T1, VEGFR2 (Homo sapiens, UniProt P35968)
T1 sequence (P35968 20-1356, species assumed): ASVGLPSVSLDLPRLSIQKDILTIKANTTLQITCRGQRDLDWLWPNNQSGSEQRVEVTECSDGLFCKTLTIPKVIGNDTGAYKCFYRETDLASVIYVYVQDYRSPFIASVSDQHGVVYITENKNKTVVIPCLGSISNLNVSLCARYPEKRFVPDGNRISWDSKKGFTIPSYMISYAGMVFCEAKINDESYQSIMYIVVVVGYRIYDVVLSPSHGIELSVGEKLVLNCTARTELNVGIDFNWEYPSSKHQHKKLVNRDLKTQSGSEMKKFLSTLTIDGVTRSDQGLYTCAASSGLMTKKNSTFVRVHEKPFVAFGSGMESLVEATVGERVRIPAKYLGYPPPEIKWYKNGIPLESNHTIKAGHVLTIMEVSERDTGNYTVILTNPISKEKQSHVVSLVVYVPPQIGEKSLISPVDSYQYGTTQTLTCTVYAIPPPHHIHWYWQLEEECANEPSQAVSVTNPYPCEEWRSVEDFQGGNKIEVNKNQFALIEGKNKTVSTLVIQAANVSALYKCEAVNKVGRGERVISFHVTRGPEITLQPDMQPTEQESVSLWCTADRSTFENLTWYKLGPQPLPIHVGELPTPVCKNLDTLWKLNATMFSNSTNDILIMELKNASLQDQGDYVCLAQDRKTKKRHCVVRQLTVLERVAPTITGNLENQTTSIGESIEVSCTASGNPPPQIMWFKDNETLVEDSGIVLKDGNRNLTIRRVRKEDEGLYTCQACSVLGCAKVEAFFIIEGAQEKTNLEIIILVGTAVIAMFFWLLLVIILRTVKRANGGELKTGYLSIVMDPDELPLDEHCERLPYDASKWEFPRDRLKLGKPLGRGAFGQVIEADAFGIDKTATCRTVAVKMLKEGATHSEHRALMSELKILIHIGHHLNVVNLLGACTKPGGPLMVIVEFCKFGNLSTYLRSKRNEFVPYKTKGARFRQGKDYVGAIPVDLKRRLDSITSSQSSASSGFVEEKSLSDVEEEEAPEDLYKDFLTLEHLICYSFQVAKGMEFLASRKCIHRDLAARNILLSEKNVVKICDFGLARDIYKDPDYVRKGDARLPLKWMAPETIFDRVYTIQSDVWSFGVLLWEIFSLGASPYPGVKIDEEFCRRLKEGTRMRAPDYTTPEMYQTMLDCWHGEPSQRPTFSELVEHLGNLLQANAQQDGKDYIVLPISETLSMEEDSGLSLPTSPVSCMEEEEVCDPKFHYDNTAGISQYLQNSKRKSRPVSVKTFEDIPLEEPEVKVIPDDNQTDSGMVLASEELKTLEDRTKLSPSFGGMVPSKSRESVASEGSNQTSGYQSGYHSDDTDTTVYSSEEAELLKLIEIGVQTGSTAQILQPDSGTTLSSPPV

[4] = target: FGFR1 (Homo sapiens, UniProt P11362)
FGFR1, sequence (P11362 22-822, species assumed): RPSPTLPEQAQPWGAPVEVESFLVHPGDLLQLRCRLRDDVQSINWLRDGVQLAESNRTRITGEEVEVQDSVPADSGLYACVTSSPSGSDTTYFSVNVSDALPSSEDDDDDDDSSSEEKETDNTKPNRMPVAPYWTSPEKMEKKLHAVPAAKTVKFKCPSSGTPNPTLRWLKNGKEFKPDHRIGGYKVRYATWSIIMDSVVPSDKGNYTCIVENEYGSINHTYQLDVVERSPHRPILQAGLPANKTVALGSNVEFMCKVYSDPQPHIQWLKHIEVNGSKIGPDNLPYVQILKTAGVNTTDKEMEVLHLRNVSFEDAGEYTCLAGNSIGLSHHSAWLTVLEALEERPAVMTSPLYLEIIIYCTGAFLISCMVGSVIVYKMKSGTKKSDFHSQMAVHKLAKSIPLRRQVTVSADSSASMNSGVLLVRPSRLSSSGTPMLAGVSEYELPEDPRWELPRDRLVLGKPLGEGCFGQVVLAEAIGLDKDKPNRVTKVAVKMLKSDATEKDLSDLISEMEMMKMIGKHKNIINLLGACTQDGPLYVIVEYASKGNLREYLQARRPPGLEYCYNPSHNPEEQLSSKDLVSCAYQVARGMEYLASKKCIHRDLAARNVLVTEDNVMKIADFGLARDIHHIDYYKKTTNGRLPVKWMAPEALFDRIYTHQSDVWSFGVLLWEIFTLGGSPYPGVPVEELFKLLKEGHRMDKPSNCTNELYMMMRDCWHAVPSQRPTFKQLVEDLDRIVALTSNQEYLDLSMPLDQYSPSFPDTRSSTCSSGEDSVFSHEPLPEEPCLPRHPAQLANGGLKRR

[5] = system: any gene target; conditions: cited from earlier work
[6] = target: T1, VEGFR2; conditions: cited from earlier work
[7] = relative IC50: reported IC50 toward VEGFR2 divided by next lowest reported IC50 to any gene target
[8] = average of VEGFR2 and FGFR1 relative IC50
[9] = relative IC50: reported IC50 toward FGFR1 divided by next lowest reported IC50 to any gene target
[10] = reported IC50 to VEGFR2, read-out: VEGFR2 IC50_μM
[11] = lowest reported IC50 to any gene target, read-out: min IC50
[12] = next lowest IC50 value to any gene target, read-out: Min IC50_μM
[13] = reported IC50 to VEGFR2, Table 3, selective inhibitors of VEGFR2, read-out: VEGFR2 IC50_μM
[14] = next lowest IC50 value to any gene target, Table 3, read-out: Min IC50_μM

Row | VEGFR2, rIC50 [3, 7] | FGFR1, rIC50 [4, 9] | Molecule | avg rIC50 [2, 8] | IC50 [5, 11] [nM] | other results
1 | 1.0 | 3.1 | CONC(=O)c1cc(Nc2ncnn3cc(-c4nnc(CC(C)C)o4)c(C(C)C)c23)c(F)cc1F [compound 11352215, 2,4-Difluoro-5-[6-(5-isobutyl-[1,3,4]oxadiazol-2-yl)-5-isopropyl-pyrrolo[2,1-f][1,2,4]triazin-4-ylamino]-N-methoxy-benzamide, reference compound] | 2.1 | 2 | IC50 ([6]; read-out: VEGFR2 IC50_μM, reported IC50 to VEGFR2, Table 3, selective inhibitors of VEGFR2): 2.1 nM; IC50 [5, 14]: 2.1 nM
2 | 1.0 | 1.8 | CONC(=O)c1cc(Nc2ncnn3cc(-c4nnc(CC(F)(F)F)o4)c(C(C)C)c23)c(F)cc1F [compound 11455031, 2,4-Difluoro-5-{5-isopropyl-6-[5-(2,2,2-trifluoro-ethyl)-[1,3,4]oxadiazol-2-yl]-pyrrolo[2,1-f][1,2,4]triazin-4-ylamino}-N-methoxy-benzamide, reference compound] | 1.4 | 25 | IC50 [6, 13]: 25 nM; IC50 [5, 14]: 25 nM
3 | 5.8 | 3.0 | Nc1c(-c2nc3ccccc3[nH]2)c(=O)[nH]c2ccccc12 [compound 135410282, 4-Amino-3-(1H-benzo[d]imidazol-2-yl)quinolin-2(1H)-one] | 4.4 | 10 | 
4 | 1.6 | 2.0 | Fc1ccc2c(-c3nc4cc(N5CCC(N6CCCCC6)CC5)ccc4[nH]3)n[nH]c2c1 [compound 135458467, 2-(6-Fluoro-1H-indazol-3-yl)-5-(4-(piperidin-1-yl)piperidin-1-yl)-1H-benzo[d]imidazole] | 1.8 | 16 | 
5 | 6.1 | 5.0 | COC(=O)c1ccc2c(C(=Nc3ccc(CN(C)C(=O)N(C)C)cc3)c3ccccc3)c(O)[nH]c2c1 [compound 135837837, Methyl 3-[N-[4-[[dimethylcarbamoyl(methyl)amino]methyl]phenyl]-C-phenylcarbonimidoyl]-2-hydroxy-1H-indole-6-carboxylate] | 5.6 | 10 | 
6 | 8.3 | 0.4 | C[C@@H](Oc1ccc2[nH]nc(-c3nc4cc(N5CCN(C)CC5)ccc4[nH]3)c2c1)c1c(Cl)cncc1Cl [compound 136211077, 5-[(R)-1-(3,5-Dichloropyridine-4-yl)ethoxy]-3-[5-(4-methylpiperazine-1-yl)-1H-benzoimidazole-2-yl]-1H-indazole] | 4.4 | 1 | IC50 ([5]; Table 2, lowest reported IC50 to any gene target, read-out: Min IC50_μM): 2 nM
7 | 0.7 | 3.5 | COC(=O)c1ccc2c(C(=Nc3ccc(-n4c(C)ccc4CN4CCN(C)CC4)cc3)c3ccccc3)c(O)[nH]c2c1 [compound 141475848, Methyl 2-hydroxy-3-[N-[4-[2-methyl-5-[(4-methylpiperazin-1-yl)methyl]pyrrol-1-yl]phenyl]-C-phenylcarbonimidoyl]-1H-indole-6-carboxylate, reference compound] | 2.1 | 7 | IC50 [6, 10]: 6.5 nM; IC50 [5, 12]: 9.9 nM
8 | 4.3 | 1.7 | COC(=O)Nc1ccc(-c2c(OC3CCN(C)CC3)nc3c(-c4ccc(OC)c(OC)c4)cnn3c2N)cc1 [compound 156010414, Methyl N-[4-[7-amino-3-(3,4-dimethoxyphenyl)-5-(1-methylpiperidin-4-yl)oxypyrazolo[1,5-a]pyrimidin-6-yl]phenyl]carbamate] | 3.0 | 6 | 
9 | 1.7 | 8.7 | Chembl4213341 [compound 138393067] | 5.2 | 37 | 
10 | 2.4 | 1.2 | Chembl4449189 [compound 155520650] | 1.8 | 110 | 
11 | 1.1 | 1.9 | Chembl4573547 [compound 155563388] | 1.5 | 150 | 

Further lines, the molecule ahead of its results:

Row | Molecule | VEGFR2, rIC50 [3, 7] | FGFR1, rIC50 [4, 9] | avg rIC50 [2, 8] | IC50 [5, 11] [nM] | other results
12 | CCN1CCN(c2ccc(Nc3cc(N(C)C(=O)Nc4c(Cl)c(OC)cc(OC)c4Cl)ncn3)cc2)CC1 [Infigratinib] |  |  |  |  | Body fat (Echo MRI) vs vehicle [1]: did not show an increase; Intrascapular brown fat mass (percent of body weight) vs vehicle [1]: no alteration; Body weight vs vehicle [1]: did not show an increase; Lean muscle vs vehicle [1]: did not show an increase
13 | Cc1c[nH]c(/C=C2\C(=O)Nc3ccccc32)c1CCC(=O)O [compound 5289418, 3-[(3-(2-Carboxyethyl)-4-methylpyrrol-2-YL)methylene]-2-indolinone] | 0.7 |  |  |  | avg rIC50 [2]: 1.1; Body fat (Echo MRI) vs vehicle [1]: increase in body mass starting at 9 weeks of age; Intrascapular brown fat mass (percent of body weight) vs vehicle [1]: made up for more of the body weight percent; Body weight vs vehicle [1]: increase in body weight starting at 12 weeks of age; Lean muscle vs vehicle [1]: increase in lean muscle starting at 15 weeks of age; FGFR1, rIC50 [4]: 1.5; IC50 ([5]; read-out: Min IC50_μM): 30 nM; IC50 ([5]; read-out: min IC50): 30 nM
14 | COc1cc2c(Nc3ccc(C#N)cc3F)ncnc2cc1OCCn1ccnn1 [compound 5329034, Anilinoquinazoline deriv. 36, reference compound] | 0.5 | 10.0 | 5.3 | 300 | IC50 [6, 10]: 300 nM; IC50 [5, 12]: 600 nM
15 | CONC(=O)c1cc(Nc2ncnn3cc(-c4nnc(N(C)C)o4)c(C(C)C)c23)c(F)cc1F [compound 9982235, 5-[6-(5-Dimethylamino-[1,3,4]oxadiazol-2-yl)-5-isopropyl-pyrrolo[2,1-f][1,2,4]triazin-4-ylamino]-2,4-difluoro-N-methoxy-benzamide, reference compound] | 1.0 | 1.1 | 1.0 | 7 | IC50 [6, 13]: 6.7 nM; IC50 [5, 14]: 6.7 nM
16 | CONC(=O)c1cc(Nc2ncnn3cc(-c4nnc(CS(C)(=O)=O)o4)c(C(C)C)c23)c(F)cc1F [compound 10436729, 2,4-Difluoro-5-[5-isopropyl-6-(5-methanesulfonylmethyl-[1,3,4]oxadiazol-2-yl)-pyrrolo[2,1-f][1,2,4]triazin-4-ylamino]-N-methoxy-benzamide, reference compound] | 1.0 | 2.2 | 1.6 | 2 | IC50 [6, 13]: 2.1 nM; IC50 [5, 14]: 2.1 nM
17 | CCc1nnc(-c2cn3ncnc(Nc4cc(C(=O)NOC)c(F)cc4F)c3c2C(C)C)o1 [compound 11374515, 5-[6-(5-Ethyl-[1,3,4]oxadiazol-2-yl)-5-isopropyl-pyrrolo[2,1-f][1,2,4]triazin-4-ylamino]-2,4-difluoro-N-methoxy-benzamide, reference compound] | 1.0 | 2.6 | 1.8 | 2 | IC50 [6, 13]: 1.8 nM; IC50 [5, 14]: 1.8 nM
18 | COc1cc2c(cc1F)C(c1ccccc1Cl)=NC1=C(C)NNC1=N2 [compound 135398512, 5-(2-Chlorophenyl)-7-fluoro-1,2-dihydro-8-methoxy-3-methylpyrazolo(3,4-b)(1,4)benzodiazepine] |  |  | 1.6 |  | VEGFR2, rIC50 [3]: 0.4; FGFR1, rIC50 [4]: 2.8; IC50 ([5]; read-out: Min IC50_μM): 24 nM; IC50 ([5]; read-out: min IC50): 24 nM
19 | Cediranib maleate |  |  |  |  | Body fat (Echo MRI) vs vehicle [1]: did not show an increase; Intrascapular brown fat mass (percent of body weight) vs vehicle [1]: no alteration; Body weight vs vehicle [1]: did not show an increase; Lean muscle vs vehicle [1]: did not show an increase; IC50 ([6]; read-out: IC50 VEGFR2): 1 nM
